Source: patent publication US6716826B2, “Compounds and their uses” (Rodaris Pharmaceuticals Limited, priority 2000, dated 2004)

Tests used:
PKA = PKA inhibition assay; format: biochemical
Description: (§1) Methods for obtaining A-type and P-type mediators are set out in Caro et al, 1997, and in WO98/11116 and WO98/11117. Protocols for determining characteristic IPG biological activities such as PDH activation, PKA inhibition, acetylCoA activation, fructose-1,6-bis-phosphatase activity and lipogenesis are well known in the art, e.g. as described in Caro et al ^[14].
(§2) The compounds of the invention can be tested for one or more the characteristic IPGP and/or IPG-A activities mentioned above to determine whether they will be suitable for use a IPG mimetics or antagonists. Preferred assays measure the effect of the compounds on PDH phosphatasc, PKA or lipogenesis. Protocols for these assays are provided in Caro et al ^[14].

PDH phosphatase = experiment: PDH activation assay; format: biochemical
Description: as §1, §2

## NC1C(OC2C(O)C(O)C(O)C(O)C2O)OC(CO)C(OC2OC(CO)C(O)C(O)C2O)C1O [RGL1014, O-α-D-Galactopyranosyl-(1-4)-(2-amino-2-deoxy-α-D-glucopyranosyl)-(1-6)-D-myo-inositol]
PKA
  PKA inhibition at 0.1 μM: 2%

## NC1C(OC2C(O)C(O)C(O)C(O)C2O)OC(CO)C(OC2OC(CO)C(O)C(O)C2O)C1O [RGL1021, O-(α-D-galactopyranosyl)-(1-4)-(2-amino-2-deoxy-α-D-glucopyranosyl)-(1-6)-D-chiro-inositol]
PDH phosphatase
  PDH activation at 100 μM: 14%

## NC1C(OC2C(O)C(O)C(O)C(O)C2OP(=O)(O)O)OC(CO)C(OC2OC(CO)C(O)C(O)C2O)C1O [RGL1022, O-α-D-galactopyranosyl-(1-4)-2-ammonio-2-deoxy-α-D-glucopyranosyl-(1-6)-D-chiro-inositol-1-phosphate]
PKA
  PKA inhibition at 0.1 μM: 47%
